“And” between values parts separate entries of the source, which are not always exact repeats. Identical values can stand only once. Like-named read-outs stand apart in the source and are kept apart here.
Legend:
T. colubriformis = assay: Integrated in vitro screening, T. colubriformis; format: cell-based; conditions: for IC50: Trichostrongylus colubriformis, read-out: T. colubriformis, IC50
L. donovani HU3 = assay: In vivo activity against L. donovani HU3 in mice (liver parasite load, LDU); set-up: species or system Leishmania donovani; conditions: for ED50: Leishmania donovani
Description: (§1) The infection and treatment of the animals was performed as described by Croft and Yardley and references there in (Croft & Yardley (1999) Animal models of visceral leishmaniasis. In Handbook of Animal Models of Infection, Zak, O. (ed) pp 783-787, Academic Press, London). […] The liver was removed from freshly sacrificed animals and weighed. Smears were then prepared from the livers on microscope slides and fixed with methanol and stained with Giemsa stain. The number of parasites per 500 liver cells was determined microscopically for each experimental animal. This figure is multiplied by total liver weight (mg) and this figure (the Leishman-Donovan unit (LDU)) is used as the basis for calculating the difference in parasite load between treated and untreated animals (Croft & Yardley, 1999 supra).
(§2) Stibogluconate at its MTD (15 mg/kg×5 SC) was used as the control compound for these experiments.

P. falciparum (Ghana) = assay: Integrated in vitro screening, P. falciparum (Ghana); format: cell-based; conditions: Plasmodium falciparum; for IC50: read-out: P. falciparum (Ghana), IC50
T. cruzi (tulahuen CL2) = assay: microbe, parasite or virus in culture; conditions: Trypanosoma cruzi, L6, read-out: T. cruzi (tulahuen CL2) IC50
Description: The Trypanosoma cruzi (MHOM/CL/00/Tulahuen) transfected with β-galactosidase (Lac Z) gene, was used (Buckner et al (1996) Antimicrobial Agents and Chemotherapy 40(11), 2592-2597. The strain was maintained on an L-6 (rat skeletal myoblast cell line obtained from European Collection of Animal Cell Cultures (ECACC, Salisbury, UK)) cell-layer in RPMI 1640 w/o phenol red medium supplemented with 10% heat inactivated fetal calf serum. All cultures and assays were conducted at 37° C. under an atmosphere of 5% CO2 in air.
For the assays, the compound was further diluted to the appropriate concentration using complete medium.
Assays were performed in sterile 96-well microliter plates, each well containing 100 μl medium with 2×10^3 L-6 cells. After 24 hours 50 μl of a trypanosome suspension containing 5×10^3 trypomastigote bloodstream forms from culture was added to the wells. 48 hours later the medium was removed from the wells and replaced by 100 μl fresh medium with or without a serial drug dilution. […] Nifurtimox was used as the reference drug.
The compounds were tested in triplicate at 4 concentrations (30-10-3-1 μg/ml). Nifurtimox was included as the reference drug.
The same protocol was used and the IC50s determined using an extended dose range adjusted as appropriate.

[1] = Cytotoxicity assays against a range of human cell lines; format: cell-based; conditions: range of human cell lines (not named)
T cruzi [2] = assay: In vivo activity against T. cruzi in BALB/c mice (blood parasites, survival); set-up: species or system Trypanosoma cruzi; conditions: for # of type of field (blood parasites per fields): 0.3 mg/kg i.p. x5, individual mice
Description: At a dose of 0.3 mg/kg (IP×5, daily) all the mice survived for the 50 days before the experiment was terminated.

T. b. brucei = assay: Integrated in vitro screening, T. b. brucei; format: cell-based; conditions: Trypanosoma brucei, read-out: T. b. brucei, IC50
[3] = mouse, in vivo
Description: as §1, §2

T cruzi [4] = assay: In vivo activity against T. cruzi in BALB/c mice (blood parasites, survival); set-up: species or system Trypanosoma cruzi; conditions: for # of type of field (blood parasites per fields): individual mice
L. infantum = assay: In vitro screening, Leishmania in mouse peritoneal macrophages; format: cell-based; conditions: Peritoneal macrophage
Description: One strain of Leishmania spp. (Leishmania donovani MHOM/ET/67/L82, also known as LV9,HU3) was used. The strain is maintained in the Syrian Hamster (Mesocricetus auratus). Amastigotes were collected from the spleen of an infected hamster and spleen parasite burden was assessed using the Stauber technique.
Primary peritoneal mouse (CD1) macrophages were collected 1 or 2 days after a macrophage production stimulation with an i.p. injection of 2 ml 2% soluble starch. All cultures and assays were conducted at 37° C. under an atmosphere of 5% CO2.
The stock was pre-diluted to 60 μg/ml in RPMI 1640+10% heat inactivated fetal calf serum. Assays were performed in sterile 16-well tissue culture slides, each well containing 50 μl of the compound dilutions together with 100 μl of macrophage/parasite inoculum (4×10^5 macrophages/ml and 4×10^6 parasites/ml). The inoculum was prepared in RPMI-1640 medium, supplemented with 10% heat inactivated fetal calf serum. […] After 5 days of incubation, parasite growth was microscopically assessed after staining the cells with a 10% Giemsa solution. The level of infection/well was evaluated by counting the number of infected macrophages per 100 macrophages. The results expressed as % reduction in parasite burden compared to control wells, were transferred into a graphic programme (EXCEL), sigmoidal inhibitions curves determined and IC50 values calculated. […]

CCCSc1ccc2nc(NC(=O)OC)[nH]c2c1 [Albendazole]
IC50 (T. colubriformis): 2 nM

O.O.O.O.O.O.O.O.O.O=C([O-])[C@@H]1[O][Sb]2([O-])([O][Sb]34([OH])[O][C@H]([C@H](O)CO)[C@H]([O]3)[C@H](C(=O)[O-])[O]4)[O][C@H]([C@H](O)CO)[C@@H]1[O]2.[Na+].[Na+].[Na+] [Stibogluconate, sodium stibogluconate]
effect on parasite counts (L. donovani HU3; SCID mouse model, MTD 15 mg/kg×5 SC): little effect

CCN(CC)CCCC(C)Nc1ccnc2cc(Cl)ccc12 (centres unmarked) [Chloroquine]
IC50 (P. falciparum (Ghana)): 18 nM

CC1CS(=O)(=O)CCN1/N=C/c1ccc([N+](=O)[O-])o1 (centres unmarked) [Nifurtimox]
IC50 (T. cruzi (tulahuen CL2)): 450 nM

NC(=O)c1cc(N2CC2)c([N+](=O)[O-])cc1[N+](=O)[O-] [Tretazicar, 5-(aziridin-1-yl)-2,4-dinitrobenzamide]
IC50 [1]: > 50000 nM | survival of infected mice (T cruzi [2]; 0.3 mg/kg (IP×5, daily), BALB/c mice, experiment terminated at 50 days): ≥ 50 days | parasites in the blood (T cruzi [2]; 0.3 mg/kg (IP×5, daily), at 13 days): parasites could still be detected in the blood | # of type of field (blood parasites per fields) (T cruzi [2]; day 6 post infection): 2/20 and 0/20 (4×) | # of type of field (blood parasites per fields) (T cruzi [2]; day 13 post infection): 16/5 and 2/5 (2×) and 7/5 and 6/5 | IC50 (T. b. brucei; in vitro): 5000 nM | activity against tested strains (T. colubriformis; T. colubriformis, in words): No activity | IC50 (T. colubriformis; in vitro): > 32000 nM | drug related toxicity, as measured by body weight loss [3]: No drug related toxicity | dose at which significant toxicity was observed ([3]; 5 days): 10 mg/kg×5 | # of type of field (blood parasites per fields) (T cruzi [4]; 1 mg/kg i.p. x5, day 6 post infection): 0/20 (3×) and 1/20 (2×) | # of type of field (blood parasites per fields) (T cruzi [4]; 1 mg/kg i.p. x5, day 13 post infection): 0/10 (2×) and 3/10 | parasites in the blood (T cruzi [4]; 3.0 mg/kg (IP×5, daily)): cleared all the parasites from the blood | # of type of field (blood parasites per fields) (T cruzi [4]; 3 mg/kg i.p. x5, day 6 post infection): 5/20 and 12/20 and 4/20 and 1/20 (2×) | # of type of field (blood parasites per fields) (T cruzi [4]; 3 mg/kg i.p. x5, day 13 post infection): 0/10 | # of type of field (blood parasites per fields) (T cruzi [4]; 10 mg/kg i.p. x5, day 6 post infection): 0/20 (3×) and 1/20 and 2/20 | # of type of field (blood parasites per fields) (T cruzi [4]; 10 mg/kg i.p. x5, day 13 post infection): 0/10 | IC50 (L. infantum): 80 nM | activity against tested strains (P. falciparum (Ghana); in words): No activity | IC50 (P. falciparum (Ghana); in vitro): > 32000 nM | IC50 (T. cruzi (tulahuen CL2)): 3 nM | ED90 (L. donovani HU3; BALB/c mice, IP × 5 Daily): 1.41 mg/kg | ED90 (L. donovani HU3; BALB/c mice, IV × 3 Daily): 1.15 mg/kg | ED50 (L. donovani HU3; ip, BALB/c mice, IP × 5 Daily): 0.23 mg/kg | ED50 (L. donovani HU3; iv, BALB/c mice, IV × 3 Daily): 0.19 mg/kg | ED50 (L. donovani HU3; iv, SCID mice, IV × 5 Daily): 0.18 mg/kg | ED90 (L. donovani HU3; SCID mice, IV × 5 Daily): 0.35 mg/kg

Cc1ccc(C(=O)Nc2ccc(S(=O)(=O)O)c3cc(S(=O)(=O)O)cc(S(=O)(=O)O)c23)cc1NC(=O)c1cccc(NC(=O)Nc2cccc(C(=O)Nc3cc(C(=O)Nc4ccc(S(=O)(=O)O)c5cc(S(=O)(=O)O)cc(S(=O)(=O)O)c45)ccc3C)c2)c1 [Suramin]
IC50 (T. b. brucei): 45 nM

O=C(Cn1ccnc1[N+](=O)[O-])NCc1ccccc1 [benznidazole]
parasites in the blood, compared with tretazicar 3.0 mg/kg (T cruzi [4]; 45 mg/kg (p.o.×5 daily)): equivalent effect | # of type of field (blood parasites per fields) (T cruzi [4]; 45 mg/kg p.o. x5, day 6 post infection): 0/20 and 3/20 (2×) and 4/20 and 1/20 | # of type of field (blood parasites per fields) (T cruzi [4]; 45 mg/kg p.o. x5, day 13 post infection): 0/10

Source: US8415334B2, “Method of combating infection” (Morvus Technology Ltd., priority 2005, dated 2013)
